Assay results taken from ChEMBL document CHEMBL5331107 (J Med Chem, 2023).
pEC50, pIC50: −log10 of the molar value.

Legend:
in vitro [1] = details: human, MT4 cells
Description: Selectivity index, ratio of CC50 for cytotoxicity against human MT4 cells to EC50 for antiviral activity against NNRTI-resistant HIV-1 harboring Y188L mutant infected in human MT4 cells

[2] = tested on: Human immunodeficiency virus 1; format: functional, organism-based; details: Human immunodeficiency virus 1, MT4, 120 h
[3] = tested on: Human immunodeficiency virus 1; test: Antiviral activity against NNRTI-resistant HIV-1 harboring L100I mutant infected in human MT4 cells assessed as protection against virus-induced cytopathic effect incubated for 5 days by MTT assay; format: functional, organism-based; details: Human immunodeficiency virus 1, MT4, 120 h
[4] = tested on: Human immunodeficiency virus 1; test: Antiviral activity against NNRTI-resistant HIV-1 harboring E138K mutant infected in human MT4 cells assessed as protection against virus-induced cytopathic effect incubated for 5 days by MTT assay; format: functional, organism-based; details: Human immunodeficiency virus 1, MT4, 120 h
[5] = tested on: Human immunodeficiency virus 1; test: microbe, parasite or virus in culture; details: Human immunodeficiency virus 1, IIIB, MT4, 120 h
Description: Antiviral activity against wild type HIV-1 IIIB infected in human MT4 cells assessed as protection against virus-induced cytopathic effect incubated for 5 days by MTT assay

in vitro [6] = details: human, MT4 cells; remark: listed apart in the source
Description: Selectivity index, ratio of CC50 for cytotoxicity against human MT4 cells to EC50 for antiviral activity against NNRTI-resistant HIV-1 harboring E138K mutant infected in human MT4 cells

in vitro [7] = details: human, MT4 cells; remark: listed apart in the source
Description: Selectivity index, ratio of CC50 for cytotoxicity against human MT4 cells to EC50 for antiviral activity against NNRTI-resistant HIV-1 harboring L100I mutant infected in human MT4 cells

[8] = tested on: Human immunodeficiency virus 1; format: functional, organism-based; details: Human immunodeficiency virus 1, MT4, 120 h; remark: listed apart in the source
in vitro [9] = details: human, MT4 cells; remark: listed apart in the source
Description: Selectivity index, ratio of CC50 for cytotoxicity against human MT4 cells to EC50 for antiviral activity against NNRTI-resistant HIV-1 harboring Y181C mutant infected in human MT4 cells

[10] = tested on: Human immunodeficiency virus 1; test: Antiviral activity against NNRTI-resistant HIV-1 harboring K103N mutant infected in human MT4 cells assessed as protection against virus-induced cytopathic effect incubated for 5 days by MTT assay; format: functional, organism-based; details: Human immunodeficiency virus 1, MT4, 120 h
[11] = Cytotoxicity against human MT4 cells assessed as reduction in cell viability incubated for 5 days by MTT assay; format: toxicity, cell-based; details: time 5 day
[12] = tested on: Human immunodeficiency virus 1; format: functional, organism-based; details: Human immunodeficiency virus 1, MT4, 120 h; remark: listed apart in the source
in vitro [13] = details: human, MT4 cells; remark: listed apart in the source
Description: Selectivity index, ratio of CC50 for cytotoxicity against human MT4 cells to EC50 for antiviral activity against NNRTI-resistant HIV-1 harboring K103N and Y181C mutant infected in human MT4 cells

[14] = molecular target: Human immunodeficiency virus type 1 reverse transcriptase (Human immunodeficiency virus 1, UniProt Q72547); test: Inhibition of HIV-1 reverse transcriptase assessed as assessed as reduction of biotin-dUTP incorporation into […] incubated for 1 hrs by ELISA analysis
in vitro [15] = details: human, MT4 cells; remark: listed apart in the source
Description: Selectivity index, ratio of CC50 for cytotoxicity against human MT4 cells to EC50 for antiviral activity against NNRTI-resistant HIV-1 harboring F227L and V106A mutant infected in human MT4 cells

in vitro [16] = details: human, MT4 cells; remark: listed apart in the source
Description: Selectivity index, ratio of CC50 for cytotoxicity against human MT4 cells to EC50 for antiviral activity against wildtype HIV-1 IIIB infected in human MT4 cells

in vitro [17] = details: human, MT4 cells; remark: listed apart in the source
Description: Selectivity index, ratio of CC50 for cytotoxicity against human MT4 cells to EC50 for antiviral activity against NNRTI-resistant HIV-1 harboring K103N mutant infected in human MT4 cells

[18] = tested on: Human immunodeficiency virus 1; test: Antiviral activity against NNRTI-resistant HIV-1 harboring F227L and V106A double mutant infected in human MT4 cells assessed as protection against virus-induced cytopathic effect incubated for 5 days by MTT assay; format: functional, organism-based; details: Human immunodeficiency virus 1, MT4, 120 h
[19] = tested on: Human immunodeficiency virus 1; test: Potency index, ratio of efavirenz EC50 to test compound EC50 for antiviral activity against NNRTI-resistant HIV-1 harboring K103N mutant infected in human MT4 cells assessed as protection against virus-induced cytopathic effect incubated for 5 days by MTT assay; format: functional; details: time 5 day
hERG = hERG (Homo sapiens, UniProt Q12809); test: Inhibition of hERG expressed in CHO cells at 0.1 uM at -80 mV holding potential by manual patch-clamp electrophysiology method relative to control; format: toxicity, cell-based; details: CHO cells expressing hERG
[20] = Water solubility of the compound in phosphate buffer at pH 7.4
[21] = Metabolic stability in human liver microsomes assessed as half-life incubated for 60 mins in the presence of NADPH by LC-MS/MS analysis; format: ADME, Microsome
[22] = Water solubility of the compound in phosphate buffer at pH 7.0
[23] = Metabolic stability in human liver microsomes assessed as compound remaining measured after 60 mins in the presence of NADPH by LC-MS/MS analysis; format: ADME, Microsome
[24] = Metabolic stability in human liver microsomes assessed as intrinsic clearance incubated for 60 mins in the presence of NADPH by LC-MS/MS analysis
[25] = Metabolic stability in human plasma assessed as compound remaining incubated for 120 mins by LC-MS/MS analysis; format: ADME, cell-free; details: read-out: Stability
[26] = Metabolic stability in human plasma assessed as half-life incubated for 120 mins by LC-MS/MS analysis; format: ADME, cell-free
[27] = Metabolic stability in human liver assessed as intrinsic clearance incubated for 60 mins in the presence of NADPH by LC-MS/MS analysis; format: ADME, tissue-based; details: read-out: CLH
[28] = Metabolic stability in human plasma assessed as compound hydrolysis incubated for 120 mins by LC-MS/MS analysis; format: ADME, cell-free; details: 2 h

Sequence of hERG (Q12809 whole entry): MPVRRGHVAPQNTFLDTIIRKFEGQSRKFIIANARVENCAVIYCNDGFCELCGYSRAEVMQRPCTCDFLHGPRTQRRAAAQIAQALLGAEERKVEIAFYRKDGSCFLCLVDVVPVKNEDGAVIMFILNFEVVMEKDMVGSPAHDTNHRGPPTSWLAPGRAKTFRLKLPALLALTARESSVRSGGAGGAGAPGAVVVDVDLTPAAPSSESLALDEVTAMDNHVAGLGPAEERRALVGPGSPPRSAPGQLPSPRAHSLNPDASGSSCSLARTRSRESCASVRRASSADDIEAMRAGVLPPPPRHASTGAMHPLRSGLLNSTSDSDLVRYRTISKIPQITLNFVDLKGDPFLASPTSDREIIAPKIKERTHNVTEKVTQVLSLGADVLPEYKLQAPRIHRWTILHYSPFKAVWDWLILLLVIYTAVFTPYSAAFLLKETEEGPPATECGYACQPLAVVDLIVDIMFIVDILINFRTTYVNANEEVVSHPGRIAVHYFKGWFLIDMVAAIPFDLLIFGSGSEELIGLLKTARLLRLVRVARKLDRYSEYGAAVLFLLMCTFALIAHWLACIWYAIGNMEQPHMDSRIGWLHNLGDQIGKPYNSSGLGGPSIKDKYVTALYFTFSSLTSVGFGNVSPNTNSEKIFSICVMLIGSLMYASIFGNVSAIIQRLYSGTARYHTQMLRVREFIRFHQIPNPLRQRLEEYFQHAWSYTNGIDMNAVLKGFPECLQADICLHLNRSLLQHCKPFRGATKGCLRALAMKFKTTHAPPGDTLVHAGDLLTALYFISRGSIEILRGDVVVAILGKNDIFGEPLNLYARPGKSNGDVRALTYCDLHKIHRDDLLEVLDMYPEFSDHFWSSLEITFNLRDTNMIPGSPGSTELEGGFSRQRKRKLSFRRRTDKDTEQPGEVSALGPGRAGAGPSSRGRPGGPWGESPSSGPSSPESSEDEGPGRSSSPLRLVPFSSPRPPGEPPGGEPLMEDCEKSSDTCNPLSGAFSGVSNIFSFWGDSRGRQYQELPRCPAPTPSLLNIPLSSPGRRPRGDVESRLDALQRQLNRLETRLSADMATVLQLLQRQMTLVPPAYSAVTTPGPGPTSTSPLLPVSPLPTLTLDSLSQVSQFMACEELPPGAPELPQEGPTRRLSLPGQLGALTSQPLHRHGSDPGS

| Compound | selectivity ratio (in vitro [1]) | pEC50 [2] | pEC50 [3] | pEC50 [4] | pEC50 [5] | selectivity ratio (in vitro [6]) | selectivity ratio (in vitro [7]) | pEC50 [8] | selectivity ratio (in vitro [9]) | pEC50 [10] | CC50 at 120 h [11] | pEC50 [12] | selectivity ratio (in vitro [13]) | pIC50 [14] | selectivity ratio (in vitro [15]) | selectivity ratio (in vitro [16]) | selectivity ratio (in vitro [17]) | pEC50 [18] | further results |
| --- | --- | --- | --- | --- | --- | --- | --- | --- | --- | --- | --- | --- | --- | --- | --- | --- | --- | --- | --- |
| C=CC(=O)N1CCc2nc(Nc3ccc(C#N)cc3)nc(Oc3c(C)cc(C#N)cc3C)c2C1 | 220 | 7.29 | 7.35 | 7.34 | 8.09 | 246 | 252 | 6.86 | 235 | 7.93 | 11100 nM | 7.32 | 81 | 7.15 | 83 | 1370 | 956 | 6.87 |  |
| Cc1cc(C#N)cc(C)c1Oc1nc(Nc2ccc(C#N)cc2)nc2c1CN(C(=O)c1ccc([N+](=O)[O-])cc1)CC2 | > 5130 | 7.35 | 6.92 | 7.48 | 8.12 | > 6960 | > 1910 | 6.81 | > 4740 | 8.01 | > 229000 nM | 7.32 | > 1470 | 6.84 | > 848 | > 30000 | > 23400 | 6.57 |  |
| Cc1cc(C#N)cc(C)c1Oc1nc(Nc2ccc(C#N)cc2)nc2c1CN(Cc1ccc(C(N)=O)cc1)CC2 | 5550 | 6.74 | 7.17 | 7.87 | 8.17 | 7560 | 1510 | 7.07 | 2960 | 8.11 | 101000 nM | 7.47 | 1180 | 6.91 | 914 | 15100 | 12900 | 6.95 | Ratio EC50 [19]: 17 |
| COc1cc(N)c(Cl)cc1C(=O)NC1CCN(CCCOc2ccc(F)cc2)CC1OC (stereo not given) [CISAPRIDE] |  |  |  |  |  |  |  |  |  |  |  |  |  |  |  |  |  |  | inhibition at 0.1 µM (hERG): 64% |
| Cc1cc(C#N)cc(C)c1Oc1nc(Nc2ccc(C#N)cc2)nc(N)c1Br [ETRAVIRINE] |  | 7.49 |  |  |  |  |  | 7.18 |  | 8.40 | > 4610 nM |  |  |  |  |  |  |  | solubility ([20]; phosphate buffer): < 1 µg/mL; half-life ([21]; liver microsomes): 65.5 min; solubility [22]: < 1 µg/mL; remaining at 1 h ([23]; liver microsomes, read-out: Stability): 50.2%; microsomal CLint at 1 h ([24]; liver microsomes): 21.2 µL/min/mg; remaining at 2 h [25]: 83.2%; half-life [26]: > 289 min; CLint scaled [27]: 19 mL/min/kg |
| CC(C)[N+](C)(CCOC(=O)C1c2ccccc2Oc2ccccc21)C(C)C.[Br-] [PROPANTHELINE BROMIDE] |  |  |  |  |  |  |  |  |  |  |  |  |  |  |  |  |  |  | Stability [28]: Unstable; half-life [26]: 10 min |
| Cc1cc(/C=C/C#N)cc(C)c1Nc1ccnc(Nc2ccc(C#N)cc2)n1 [RILPIVIRINE] |  |  |  |  |  |  |  |  |  |  |  |  |  |  |  |  |  |  | solubility ([20]; buffer): < 1 µg/mL; t1/2 ([21]; microsomes, 1 h): 12.8 min; Stability ([23]; microsomes, 1 h): 21%; microsomal CLint at 1 h ([24]; microsomes): 108 µL/min/mg; CLint scaled [27]: 97.6 mL/min/kg |
